Measured values published in paper PMC5225172 (Cancer Chemotherapy and Pharmacology, 2016).
Entries after “also recorded” stand apart in the source; their conditions may differ.

What was measured:
[1] = tested on: advanced or refractory solid tumors; test: Tumor response and disease assessment by RECIST version 1.1; assay type: in vivo, human
Description: Screening comprised: provision of written, informed consent; demographics; baseline characteristics; concomitant medications; safety assessments (adverse events [defined as any new finding not present in the patient’s medical history, or a worsening of a prior medical history finding], vital signs, laboratory tests, physical examination, 12-lead electrocardiogram, multigated acquisition scan, or echocardiogram); tumor measurements by computed tomography or magnetic resonance imaging; disease assessment as defined by RECIST version 1.1; ophthalmologic examination; chest computed tomography; and ECOG PS assessment. The following assessments were also performed on cycle 1, day 1: safety; ECOG PS assessment; concomitant medications; blood samples for PK analysis; serum samples for glucose analysis; serum insulin; urinalysis; serum ketones; and post-dose echocardiogram. Safety assessments, blood pressure measurements, blood sampling for PK analysis, and urinalysis were also performed on days 8 and 15 of cycle 1.
Additional PK samples were collected at either 72, 96, or 120 h following the start of infusion. PK samples were also collected on cycle 1, day 15 at 0, 0.5, 1, 1.5, 2, 3, 5, 8, 11, and 25 h following the start of infusion and on cycle 3, day 15 at 0, 0.5, 1, 1.5, 2, 3, 5, and 8 h following the start of infusion. Blood pressure monitoring was performed every 5 min before dosing on cycle 1, day 1 until the observation of two consecutive measurements <150 mmHg (systolic) and <90 mmHg (diastolic). […] Serum samples for glucose analysis were collected immediately before the first infusion and in parallel with PK sampling through to 49 h post-dose. Glucose samples taken at 25 h post-dose were to be fasting, where possible and if deemed safe. Capillary blood glucose testing was to be performed for hyperglycemia management as determined appropriate by the investigator; hyperglycemia was defined as capillary blood glucose >200 mg/dL and was to be treated with short-acting insulin. Tumor measurement and disease assessment according to RECIST version 1.1 were conducted every two cycles by the investigator.

[2] = tested on: advanced solid tumors and non-Hodgkin's lymphoma; parameters: method as in PMID 27672108; conditions: cited from earlier work

COc1c(OCCCN2CCOCC2)ccc2c1N=C(NC(=O)c1cnc(N)nc1)N1CCN=C21 [copanlisib, Copanlisib]
Best overall response: Complete response ([1]; Cohort 1, 0.4 mg/kg (n = 3)): 0 n (%) | Best overall response: Partial response ([1]; Cohort 1, 0.4 mg/kg (n = 3)): 0 n (%) | Best overall response: Progressive disease (by proven measurement) ([1]; Cohort 1, 0.4 mg/kg (n = 3)): 2 (66.7) n (%) | Best overall response: Stable disease ([1]; Cohort 1, 0.4 mg/kg (n = 3)): 1 (33.3) n (%) | Overall disease control rate (complete response + partial response + stable disease) ([1]; Cohort 1, 0.4 mg/kg (n = 3)): 1 (33.3) n (%) | Overall response rate (complete response + partial response) ([1]; Cohort 1, 0.4 mg/kg (n = 3)): 0 n (%) | Best overall response: Complete response ([1]; Cohort 2, 0.8 mg/kg (n = 7)): 0 n (%) | Best overall response: Partial response ([1]; Cohort 2, 0.8 mg/kg (n = 7)): 0 n (%) | Best overall response: Progressive disease (by proven measurement) ([1]; Cohort 2, 0.8 mg/kg (n = 7)): 4 (57.1) n (%) | Best overall response: Stable disease ([1]; Cohort 2, 0.8 mg/kg (n = 7)): 3 (42.9) n (%) | Overall disease control rate (complete response + partial response + stable disease) ([1]; Cohort 2, 0.8 mg/kg (n = 7)): 3 (42.9) n (%) | Overall response rate (complete response + partial response) ([1]; Cohort 2, 0.8 mg/kg (n = 7)): 0 n (%) | Best overall response: Complete response ([1]; Total (n = 10)): 0 n (%) | Best overall response: Partial response ([1]; Total (n = 10)): 0 n (%) | Best overall response: Progressive disease (by proven measurement) ([1]; Total (n = 10)): 6 (60.0) n (%) | Best overall response: Stable disease ([1]; Total (n = 10)): 4 (40.0) n (%) | Overall disease control rate (complete response + partial response + stable disease) ([1]; Total (n = 10)): 4 (40.0) n (%) | Overall response rate (complete response + partial response) ([1]; Total (n = 10)): 0 n (%) | Disease control rate ([1]; cohort 1, 0.4 mg/kg): 33.3% | Median time to progression ([1]; cohort 1, 0.4 mg/kg, 95% CI 50–77): 52 days | Time to progression, single patient ([1]; cohort 1, stable disease as best response): 77 days | Disease control rate ([1]; cohort 2, 0.8 mg/kg): 42.9% | Median time to progression ([1]; cohort 2, 0.8 mg/kg, 95% CI 21–not estimated): 53 days | Time to progression, single patient (censored) ([1]; cohort 2, gastrointestinal stromal tumor, stable disease, discontinued for thrombocytopenia): 176 days | Time to progression, single patient ([1]; cohort 2, stable disease as best response): 82 days | Time to progression, single patient (censored) ([1]; cohort 2, stable disease, discontinued because of grade 3 diarrhea): 50 days | Rate of progression-free survival ([1]; overall, after 1 month): 0.80 (95% CI 0.41–0.95) | Rate of progression-free survival ([1]; overall, after 2 months): 0.35 (95% CI 0.08–0.64) | Rate of progression-free survival ([1]; overall, after 3 months): 0.12 (95% CI 0.01–0.40) | Median time to progression ([1]; overall, 95% CI 21–82): 52 days | Complete or partial response ([1]; ten patients): No patients achieved a complete or partial response; also recorded: none experienced a complete or partial response | Disease control rate ([1]; ten patients): 40% | Progressive disease as best response ([1]; ten patients): 60.0% | Stable disease as best response ([1]; ten patients): 40.0% | Objective response rate ([2]; 25 patients in solid-tumor expansion cohort treated at the MTD): 12% | Disease control rate ([2]; advanced solid-tumor expansion cohort): 44% | Antitumor activity in patients with non-Hodgkin's lymphoma ([2]; first-in-human study): seven out of nine patients
